One experiment concerns MCF-7. The experiment can be described thus: Growth inhibition of MCF-7 sensitive breast cancer cells (colony formation, crystal violet). In kind it is cell-based, human. The following applies: for IC50: Homo sapiens. As to the method:
(§1) In vitro Activity. […] This cell suspension was dispensed in 200 μL aliquots (1000 cells/well) into the inside wells of 96-well tissue culture plates. Outside wells contained 200 μL of media. […] The medium was replaced with 90 μL of growth medium prior to addition of the drug. Doxaz was dissolved in DMSO at concentrations ranging from 50 μM to 1 mM. […] Serial dilutions (1:3 and 1:10) were made in sterile DMSO to yield seven solutions of decreasing drug concentration at 100× the respective working concentrations. […] Additionally, two lanes were treated with 10 μL of growth medium containing 10% sterile DMSO and one lane was treated with 90 μL of 1.5 M Tris HCl. […]
(§2) Cell growth inhibition experiments initially focused on MCF-7, MCF-7/Adr, SK-HEP-1, and Hep G2 cancer cells as well as rat cardiomyocytes as a measure of cardiotoxicity and Vero cells (green monkey kidney cells) as an additional measure of normal cell toxicity.
(§3) Activity of plasmin-activated prodrugs.
(§4) A more thorough characterization of the growth inhibition of a variety of cancer cells as well as rat cardiomyocytes by Formula IV (aFK-PABC-Doxaz) was evaluated in comparison with inhibition of growth by Doxaz, Dox and aFK-PABC-Dox. Cells were treated with drug for 3 h and colony growth was measured at 3 to 5 days when cells reached about 80% confluence. […] The breast cancer cell lines represent the multi-drug resistant (MDR) phenotype with MCF-7/Adr cells and a cell line that is transfected with the gene for urokinase plasminogen activator (uPA), the primary enzyme responsible for cleavage of plasminogen to plasmin. Rat cardiomyocytes served as a model for comparison of drug cardiotoxicity.

A further experiment deals with DU-145. The experiment can be described thus: Growth inhibition of DU-145 prostate cancer cells. In kind it is cell-based. The conditions noted are these: for IC50: Homo sapiens. As to the method:
as §1
(§5) SHP-77 small cell lung cancer cells were also of interest because they express modest amounts of both enzymes. Inhibition of the growth of cardiomyocytes was used as a measure of cardiotoxicity, and inhibition of the growth of Vero cells, green monkey kidney cells, was again used as another measure of toxicity to normal cells.
A more thorough characterization of the growth inhibition of a variety of cancer cells as well as rat cardiomyocytes by Formula IV (aFK-PABC-Doxaz) was evaluated in comparison with inhibition of growth by Doxaz, Dox and aFK-PABC-Dox. […] […] The breast cancer cell lines represent the multi-drug resistant (MDR) phenotype with MCF-7/Adr cells and a cell line that is transfected with the gene for urokinase plasminogen activator (uPA), the primary enzyme responsible for cleavage of plasminogen to plasmin. Rat cardiomyocytes served as a model for comparison of drug cardiotoxicity.

For the next experiment, the system named is MCF-7/Adr. The experiment can be described thus: Growth inhibition of multidrug resistant MCF-7/Adr breast cancer cells (crystal violet). In kind it is cell-based. The conditions noted are these: for IC50: Homo sapiens, NCI/ADR-RES. Here is the method: as §1, §2, §3, §4
A further experiment has as its system SK-HEP-1. Nature of the experiment: Growth inhibition of SK-HEP-1 liver cancer cells. Format: cell-based, human. The conditions noted are these: for IC50: Homo sapiens, SK-HEP1. The text has this: Cell growth inhibition experiments initially focused on MCF-7, MCF-7/Adr, SK-HEP-1, and Hep G2 cancer cells as well as rat cardiomyocytes as a measure of cardiotoxicity and Vero cells (green monkey kidney cells) as an additional measure of normal cell toxicity. […]

The test system of a further experiment is cancer cells. The experiment can be described thus: Cancer cell growth inhibition, statements over several or unnamed cell lines. In kind it is cell-based. As to the method:
(§6) In vitro Activity. […] This cell suspension was dispensed in 200 μL aliquots (1000 cells/well) into the inside wells of 96-well tissue culture plates. Outside wells contained 200 μL of media. […] The medium was replaced with 90 μL of growth medium prior to addition of the drug. Doxaz was dissolved in DMSO at concentrations ranging from 50 μM to 1 mM. […] Serial dilutions (1:3 and 1:10) were made in sterile DMSO to yield seven solutions of decreasing drug concentration at 100× the respective working concentrations. […] Additionally, two lanes were treated with 10 μL of growth medium containing 10% sterile DMSO and one lane was treated with 90 μL of 1.5 M Tris HCl. The cells were incubated at 37° C. for 3 h, at which time the drug solutions were replaced with 200 μL of fresh growth medium.
as §4

Another experiment concerns MDA-MB-435. The experiment can be described thus: Growth inhibition of MDA-MB-435 breast cancer cells. The following applies: Homo sapiens. Format: cell-based. As to the method: as §6, §3
Another experiment concerns Vero cells. Nature of the experiment: Growth inhibition of Vero cells as a measure of normal cell toxicity (MTT). In kind it is cell-based, green monkey. The conditions noted are these: for IC50: Chlorocebus sabaeus, Vero.
Text: as §2, §5

The mark [1] stands for this setting: read-out: IC50 value for cell growth inhibition, MCF-7/Adr.
[2] abbreviates: DU-145, read-out: IC50 DU-145, top line of the cell.
Where [3] appears, read: 3 h, read-out: IC50 MCF-7/Adr + plasmin.
Where [4] appears, read: MDA-MB-435, read-out: IC50 MDA-MB-435, top line of the cell.
Setting [5] is: 3 h drug treatment, read-out: Growth inhibition IC50, Vero, 3 h (converted).
Setting [6] is: 24 h drug treatment, read-out: Growth inhibition IC50, Vero, 24 h (converted).
The mark [7] stands for this setting: 3 h, read-out: Growth inhibition IC50, MCF-7/Adr, 3 h.
Setting [8] is: 3 h drug treatment, crystal violet, read-out: Growth inhibition IC50, SK-HEP-1, 3 h (converted).
Where [9] appears, read: 24 h drug treatment, crystal violet.

Results on 5 compounds are retold here after patent US8404650B2, “Methods of treating cancer with doxazolidine and prodrugs thereof” (priority 2005, dated 2013).

Where two headings read alike, the source gives them in different places.

On to `COc1cccc2c1C(=O)c1c(O)c3c(c(O)c1C2=O)C[C@@](O)(C(=O)CO)C[C@@H]3OC1CC2C(OCN2CN2COC3C(C)OC(O[C@H]4C[C@](O)(C(=O)CO)Cc5c(O)c6c(c(O)c54)C(=O)c4c(OC)cccc4C6=O)CC32)C(C)O1` (stereo partly drawn) [DoxF, Doxoform, reference compound], for which the IC50 is 2 nM in the experiment on MCF-7 (MCF7, 3 h, read-out: IC50 MCF-7); 3 nM in the experiment with DU-145 (DU-145, 3 h, read-out: IC50 DU-145); 1 nM in the experiment on MCF-7/Adr (3 h, read-out: IC50 MCF-7/Adr); approximately 2 nM with MCF-7/Adr (setting [1]). In the experiment with SK-HEP-1, the “IC50 lower than doxorubicin, SK-HEP-1” value is on record as “more than 25 fold”.

Turning to `COc1cccc2c1C(=O)c1c(O)c3c(c(O)c1C2=O)C[C@@](O)(C(=O)CO)C[C@@H]3O[C@H]1C[C@H]2[C@H](OCN2C(=O)OCc2ccc(NC(=O)[C@H](CCCCN)NC(=O)[C@H](Cc3ccccc3)NC(=O)[C@@H](C)N)cc2)[C@H](C)O1` [Formula IV, D-Ala-L-Phe-L-Lys-p-aminobenzyloxycarbonyl-Doxaz], the IC50 turned out to be 5 nM in the experiment with MCF-7 (MCF7, 3 h, read-out: IC50 MCF-7 + plasmin); 50 nM with MCF-7 (MCF7, read-out: IC50 MCF-7); 6 nM in the experiment with DU-145 (DU-145, read-out: IC50 DU-145 + plasmin); 160 nM in the experiment with DU-145 (setting [2]); 10 nM with MCF-7/Adr (setting [3]); 100 nM in the experiment with MCF-7/Adr (read-out: IC50 MCF-7/Adr). Further, the IC50 was determined as 5 nM with cancer cells (read-out: Cancer cell growth inhibition IC50 in the presence of plasmin); 240 nM in the experiment with MDA-MB-435 (setting [4]); 40 nM with MDA-MB-435 (MDA-MB-435, + plasmin, second stacked value, read-out: IC50 MDA-MB-435 + plasmin). Further, the “Increase of activity on addition of plasminogen” value in the experiment on cancer cells (0.01 unit/mL plasminogen, on average) stood at 0.3 log. Further, the “Growth inhibition better than aFK-PABA-Dox” value with cancer cells (most of the cancer cells, 3 h treatment) is reported as not below 0.5 log.

`COc1cccc2c1C(=O)c1c(O)c3c(c(O)c1C2=O)C[C@@](O)(C(=O)CO)C[C@@H]3O[C@H]1C[C@H](N)[C@H](O)[C@H](C)O1` [Doxorubicin, reference compound]: the IC50 in the experiment with MCF-7 (MCF7, 3 h, read-out: Growth inhibition IC50, MCF-7, 3 h, 3 h drug treatment, crystal violet) was 316 nM; with MCF-7 (MCF7, 3 h, read-out: IC50 MCF-7 + plasmin, + plasmin (15 μg/ml)) it was 300 nM; with MCF-7 (MCF7, 24 h, read-out: Growth inhibition IC50, MCF-7, 24 h, 24 h drug treatment, crystal violet), 12.6 nM; in the experiment on MCF-7 (MCF7, read-out: IC50 MCF-7, 3 h drug treatment, growth at 5 days), 200 ± 26 nM; with MCF-7 (MCF7, read-out: IC50 MCF-7, no plasmin or aprotinin added) it was 300 nM; with DU-145 (DU-145, 24 h, read-out: Cell growth inhibition IC50, DU-145), 31.6 nM. Also, the IC50 in the experiment with DU-145 (DU-145, read-out: IC50 DU-145) is 240 nM; with DU-145 (setting [2]) it was 300 nM; with Vero cells (setting [5]) it was 1000 nM; in the experiment with Vero cells (setting [6]) it was 501 nM; in the experiment with MCF-7/Adr (setting [7]), 6310 nM; with MCF-7/Adr (setting [3]), 20000 nM. The IC50 is 2510 nM with MCF-7/Adr (24 h, read-out: Growth inhibition IC50, MCF-7/Adr, 24 h); 10000 nM with MCF-7/Adr (read-out: IC50 MCF-7/Adr); 100 nM in the experiment on SK-HEP-1 (setting [8]); 50.1 nM in the experiment on SK-HEP-1 (24 h drug treatment, crystal violet, read-out: Growth inhibition IC50, SK-HEP-1, 24 h (converted)); 150 ± 14 nM in the experiment with MDA-MB-435 (MDA-MB-435, read-out: IC50 MDA-MB-435); 150 nM in the experiment with MDA-MB-435 (setting [4]). Also, the “Effect of added plasmin on activity” value with cancer cells (0.01 unit/mL of plasmin) is “no effect”.

`CCCCCOC(=O)Nc1ccc(COC(=O)N2COC3C(C)OC(OC4CC(O)(C(=O)CO)Cc5c(O)c6c(c(O)c54)C(=O)c4c(OC)cccc4C6=O)CC32)cc1` (stereo not drawn) [Pentyl PABC-Doxaz, Pentyl 4-(N-doxazolidinylcarbonyloxymethyl)phenylcarbamate]: in the experiment with MCF-7 (setting [9]), the “Growth inhibition IC50, MCF-7, 24 h” value was −5.6 ± 0.3 log of the molar concentration. For the same compound, in the experiment with DU-145 (setting [9]), the “Cell growth inhibition IC50, DU-145” value is −6.7 ± 0.07 log of molar concentrations. Besides, the “Growth inhibition IC50, Vero, 24 h” value in the experiment on Vero cells (24 h drug treatment) is on record as −6.0 ± 0.04 log of the molar concentration. Besides, the “Growth inhibition IC50, MCF-7/Adr, 24 h” value in the experiment on MCF-7/Adr (setting [9]) is −6.5 ± 0.06 log of the molar concentration. The “Growth inhibition IC50, SK-HEP-1, 24 h” value in the experiment on SK-HEP-1 (setting [9]) is on record as −6.0 ± 0.06 log of the molar concentration.

Regarding `COc1cccc2c1C(=O)c1c(O)c3c(c(O)c1C2=O)C[C@@](O)(C(=O)CO)C[C@@H]3O[C@H]1C[C@@H]2NCO[C@@H]2[C@H](C)O1` [Doxaz, Doxazolidine], the IC50 with MCF-7 (MCF7, 3 h, read-out: Growth inhibition IC50, MCF-7, 3 h) is 3.16 nM; with MCF-7 (MCF7, read-out: IC50 MCF-7), 3 ± 0.2 nM; in the experiment on DU-145 (DU-145, read-out: IC50 DU-145), 4 ± 0.6 nM; with Vero cells (setting [5]), 6.31 nM; with Vero cells (setting [6]), 7.94 nM; in the experiment on MCF-7/Adr (setting [7]), 3.16 nM. Moreover, the IC50 in the experiment on MCF-7/Adr (read-out: IC50 MCF-7/Adr) was 3 ± 0.2 nM; with MCF-7/Adr (setting [1]), approximately 2 nM; with SK-HEP-1 (setting [8]) it was 3.98 nM; in the experiment with MDA-MB-435 (MDA-MB-435, 3 h drug treatment, growth at 5 days, read-out: IC50 MDA-MB-435), 7 ± 0.3 nM. In addition, the “More toxic than Doxorubicin to multidrug-resistant cancer cells” value in the experiment on cancer cells (variety of multidrug-resistant cancer cells) is given as 500-10,000 fold.
